This is an account of results in patent publication US20240246967A1, “AXL COMPOUNDS” (ARCUS BIOSCIENCES, INC., priority 2021, published 2024).

As usually defined, the IC50 is the point on the concentration scale where inhibition reaches its midpoint. Read a low IC50 as inhibition by little substance.

The target in one assay is T1, human TYRO3 (Homo sapiens, UniProt Q06418).
T1 construct: purchased Invitrogen
T1 sequence (Q06418 41-890): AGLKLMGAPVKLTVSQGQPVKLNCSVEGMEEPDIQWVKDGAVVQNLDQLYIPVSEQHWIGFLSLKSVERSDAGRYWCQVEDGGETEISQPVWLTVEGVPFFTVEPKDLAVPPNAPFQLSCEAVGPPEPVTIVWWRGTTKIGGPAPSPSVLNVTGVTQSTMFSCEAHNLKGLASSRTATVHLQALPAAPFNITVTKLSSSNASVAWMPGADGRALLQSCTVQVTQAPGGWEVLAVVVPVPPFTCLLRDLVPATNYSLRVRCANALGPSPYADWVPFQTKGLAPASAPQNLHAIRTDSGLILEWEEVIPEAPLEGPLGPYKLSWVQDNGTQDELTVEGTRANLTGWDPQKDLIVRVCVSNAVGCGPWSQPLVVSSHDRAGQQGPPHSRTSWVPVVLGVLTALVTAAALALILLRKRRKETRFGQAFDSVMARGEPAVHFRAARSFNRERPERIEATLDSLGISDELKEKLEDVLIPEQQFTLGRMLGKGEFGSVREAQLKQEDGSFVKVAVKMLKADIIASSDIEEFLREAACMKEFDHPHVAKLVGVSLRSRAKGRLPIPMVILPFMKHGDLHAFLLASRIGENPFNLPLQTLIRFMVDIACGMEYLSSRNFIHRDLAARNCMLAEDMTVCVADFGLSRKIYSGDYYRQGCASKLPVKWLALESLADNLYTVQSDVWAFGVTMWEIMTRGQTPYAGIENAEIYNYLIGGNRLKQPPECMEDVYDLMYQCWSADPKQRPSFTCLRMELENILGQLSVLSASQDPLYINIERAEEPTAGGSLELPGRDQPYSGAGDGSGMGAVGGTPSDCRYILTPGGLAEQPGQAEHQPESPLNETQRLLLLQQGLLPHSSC
The assay can be described thus: HTRF KinEASE-TK biochemical potency assay, TYRO3. Particulars: 1 nM TYRO3, 700 μM ATP, 800 nM TK Substrate-biotin. On the procedure: (§1) Purified recombinant human AXL, TYRO3 and MER proteins were purchased from Invitrogen™. 10 nM AXL, 2 nM TYRO3 or MER were incubated with varying concentrations of compounds in 50 mM HEPES, pH 7.4, 10 mM MgCl2, 0.01% BSA, 1 mM DTT and 2% DMSO in a total volume of 20 μl in a 384-well microplate (Corning™ #3640) at RT for 1 h. The AXL, TYRO3 and MER enzymatic reaction was initiated by transferring 10 μl of enzyme and compound mixture into 10 μl of 1.6 μM TK Substrate-biotin (HTRF® KinEASE-TK kit, Cisbio) and 1400 μM ATP pre-incubated in 50 mM HEPES, pH 7.4, 10 mM MgCl2, 0.01% BSA, 1 mM DTT in a 384-well microplate (Corning™ #3640) at RT, giving the final reaction conditions: 5 nM AXL, 1 nM TYRO3 or MER, 800 nM TK Substrate-biotin and 700 μM ATP in 50 mM HEPES, pH 7.4, 10 mM MgCl2, 0.01% BSA, 1 mM DTT and 1% DMSO with varying concentrations of compounds. Following 2 h incubation at RT, the AXL, TYRO3 and MER enzymatic reaction was stopped by transfer of 10 μl of reaction into 10 μl of detection mix (400 nM Streptavidin-XL665, 200-fold dilution TK Antibody-Cryptate and detection buffer, HTRF® KinEASE-TK kit, Cisbio) in a white 384-well microplate (Perkin Elmer, OptiPlate 384). After 1 h incubation at RT, the plate was put into a plate reader (Evision) to read at 665/620 nm (acceptor/donor) for HTRF. The value of the DMSO blank (MIN inhibition=100% activity) was used as a negative control. The positive control was established by adding 5 μl of enzyme and DMSO mixture into 10 μl of detection mix followed by addition of 5 μl of TK Substrate-biotin and ATP mixture (MAX inhibition=0% activity). To calculate the percent activity, Equation 1 was used. Ratio 665/620 is the value at a given compound concentration: […]

Another assay concerns the target T2, human MER (Homo sapiens, UniProt Q12866).
T2 construct: purchased Invitrogen
T2 sequence (Q12866 21-999): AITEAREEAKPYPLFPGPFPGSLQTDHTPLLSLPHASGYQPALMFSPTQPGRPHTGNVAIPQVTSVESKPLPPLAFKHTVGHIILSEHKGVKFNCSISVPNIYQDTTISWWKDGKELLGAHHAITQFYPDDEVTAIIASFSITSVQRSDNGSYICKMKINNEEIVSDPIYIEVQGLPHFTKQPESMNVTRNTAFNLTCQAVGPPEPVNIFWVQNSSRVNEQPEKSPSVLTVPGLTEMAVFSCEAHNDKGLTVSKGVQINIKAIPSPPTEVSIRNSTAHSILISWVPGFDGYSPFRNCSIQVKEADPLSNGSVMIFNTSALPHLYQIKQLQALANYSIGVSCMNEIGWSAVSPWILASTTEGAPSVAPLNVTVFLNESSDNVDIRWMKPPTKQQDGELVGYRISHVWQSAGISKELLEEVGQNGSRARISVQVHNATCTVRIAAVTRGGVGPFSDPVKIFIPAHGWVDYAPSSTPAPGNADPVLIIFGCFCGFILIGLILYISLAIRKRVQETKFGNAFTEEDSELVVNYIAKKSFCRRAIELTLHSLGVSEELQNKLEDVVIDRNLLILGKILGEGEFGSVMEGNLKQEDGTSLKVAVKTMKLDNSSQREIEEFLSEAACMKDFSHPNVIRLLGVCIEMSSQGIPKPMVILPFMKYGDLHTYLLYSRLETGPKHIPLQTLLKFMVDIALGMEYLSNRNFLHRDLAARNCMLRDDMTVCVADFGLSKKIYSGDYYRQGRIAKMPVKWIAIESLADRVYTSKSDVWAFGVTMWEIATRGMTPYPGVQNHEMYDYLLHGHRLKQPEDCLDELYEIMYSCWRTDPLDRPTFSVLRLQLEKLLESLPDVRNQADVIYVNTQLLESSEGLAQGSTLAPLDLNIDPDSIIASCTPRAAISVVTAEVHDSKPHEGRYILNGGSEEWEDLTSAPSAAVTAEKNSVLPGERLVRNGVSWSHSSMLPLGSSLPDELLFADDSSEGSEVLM
The assay can be described thus: HTRF KinEASE-TK biochemical potency assay, MER. Particulars: 1 nM MER, 700 μM ATP, 800 nM TK Substrate-biotin. As to the method: as §1
On the technique in general: In TR-FRET formats the signal depends on donor and acceptor labels being close together.

`O=S(=O)(c1ccc(-c2n[nH]c3ncc(-c4ccc5c(c4)CC[C@@H](N4CCCC4)CC5)cc23)cc1)C1CC1` [Example 40, (S)-3-(4-(Cyclopropylsulfonyl)phenyl)-5-(7-(pyrrolidin-1-yl)-6,7,8,9-tetrahydro-5H-benzo[7]annulen-2-yl)-1H-pyrazolo[3,4-b]pyridine]: the figures for the IC50 at human TYRO3 and on human MER were less than 100 nM and 100 to 1000 nM, respectively.

`CCS(=O)(=O)c1ccc(-c2n[nH]c3ncc(-c4ccc5c(c4)CC[C@@H](N4CCCC4)CC5)cc23)cc1` [Example 41, (S)-3-(4-(Ethylsulfonyl)phenyl)-5-(7-(pyrrolidin-1-yl)-6,7,8,9-tetrahydro-5H-benzo[7]annulen-2-yl)-1H-pyrazolo[3,4-b]pyridine]: the concentration for half-maximal inhibition (IC50) at human TYRO3 was less than 100 nM; at human MER, 100 to 1000 nM.

Take `CC(C)S(=O)(=O)c1ccc(-c2n[nH]c3ncc(-c4ccc5c(c4)CC[C@@H](N4CCCC4)CC5)cc23)cc1` [Example 42, (S)-3-(4-(Isopropylsulfonyl)phenyl)-5-(7-(pyrrolidin-1-yl)-6,7,8,9-tetrahydro-5H-benzo[7]annulen-2-yl)-1H-pyrazolo[3,4-b]pyridine]: the values for the IC50 on human TYRO3 and on human MER were less than 100 nM and 100 to 1000 nM, respectively.

On to `C[C@@H]1CCCN1C1(C)CCc2ccc(-c3cnc4[nH]nc(-c5ccc(S(=O)(=O)C6CCCC6)cc5)c4c3)cc2CC1` (stereo partly drawn) [Example 45, 3-(4-(Cyclopentylsulfonyl)phenyl)-5-(7-methyl-7-((R)-2-methylpyrrolidin-1-yl)-6,7,8,9-tetrahydro-5H-benzo[7]annulen-2-yl)-1H-pyrazolo[3,4-b]pyridine], for which the IC50 on human TYRO3 was 100 to 1000 nM; against human MER it was more than 1000 nM.

`C[C@@H]1CCCN1C1(C)CCc2ccc(-c3cnc4[nH]nc(-c5ccc(S(=O)(=O)C6CCC6)cc5)c4c3)cc2CC1` (stereo partly drawn) [Example 46, 3-(4-(Cyclobutylsulfonyl)phenyl)-5-(7-methyl-7-((R)-2-methylpyrrolidin-1-yl)-6,7,8,9-tetrahydro-5H-benzo[7]annulen-2-yl)-1H-pyrazolo[3,4-b]pyridine]: the IC50 on human TYRO3 and at human MER was 100 to 1000 nM each time.

On to `Cc1cc(-c2n[nH]c3ncc(-c4ccc5c(c4)CCC(N4CCCC4)CC5)cc23)ccc1C(=O)N1CCNCC1` (stereo not shown) [Example 47, 1-(2-Methyl-4-{5-[7-(pyrrolidin-1-yl)-6,7,8,9-tetrahydro-5H-benzo[7]annulen-2-yl]-1H-pyrazolo[3,4-b]pyridin-3-yl}benzoyl)piperazine], for which the IC50 at human TYRO3 was less than 100 nM; against human MER, 100 to 1000 nM.

Regarding `Cc1cc(-c2n[nH]c3ncc(-c4ccc5c(c4)CCN(C(=O)C(C)C)CC5)cc23)ccc1C(=O)N1CCNCC1` [Example 48, 2-Methyl-1-(7-{3-[3-methyl-4-(piperazine-1-carbonyl)phenyl]-1H-pyrazolo[3,4-b]pyridin-5-yl}-2,3,4,5-tetrahydro-1H-3-benzazepin-3-yl)propan-1-one], the 50% inhibitory concentration (IC50) is 100 to 1000 nM against human TYRO3 and more than 1000 nM on human MER.

As to `Cc1cc(-c2n[nH]c3ncc(-c4ccc5c(c4)CC[C@@H](N4CCCC4)CC5)cc23)cc(C)c1C(N)=O` [Example 49, 2,6-Dimethyl-4-{5-[(7S)-7-(pyrrolidin-1-yl)-6,7,8,9-tetrahydro-5H-benzo[7]annulen-2-yl]-1H-pyrazolo[3,4-b]pyridin-3-yl}benzamide], the IC50 was less than 100 nM against human TYRO3 and 100 to 1000 nM on human MER.

In the case of `Cc1cc(-c2n[nH]c3ncc(-c4ccc5c(c4)CC[C@@H](N4CCCC4)CC5)cc23)cc(Cl)c1C(N)=O` [Example 50, 2-Chloro-6-methyl-4-{5-[(7S)-7-(pyrrolidin-1-yl)-6,7,8,9-tetrahydro-5H-benzo[7]annulen-2-yl]-1H-pyrazolo[3,4-b]pyridin-3-yl}benzamide], the IC50 on human TYRO3 and against human MER was less than 100 nM each time.

Regarding `C[C@@H]1CCCN1C1(C)CCc2ccc(-c3cnc4[nH]nc(-c5ccc(C(N)=O)c(F)c5)c4c3)cc2CC1` (stereo partly drawn) [Example 52, 2-Fluoro-4-(5-(7-methyl-7-((R)-2-methylpyrrolidin-1-yl)-6,7,8,9-tetrahydro-5H-benzo[7]annulen-2-yl)-1H-pyrazolo[3,4-b]pyridin-3-yl)benzamide], the 50% inhibitory concentration (IC50) was less than 100 nM at human TYRO3 and 100 to 1000 nM at human MER.

Turning to `COc1cc(-c2n[nH]c3ncc(-c4ccc5c(c4)CCC(C)(N4CCC[C@H]4C)CC5)cc23)ccc1C(N)=O` (stereo partly drawn) [Example 53, 2-Methoxy-4-(5-(7-methyl-7-((R)-2-methylpyrrolidin-1-yl)-6,7,8,9-tetrahydro-5H-benzo[7]annulen-2-yl)-1H-pyrazolo[3,4-b]pyridin-3-yl)benzamide], the IC50 is less than 100 nM against human TYRO3 and 100 to 1000 nM at human MER.

For the compound `C[C@@H]1CCCN1C1(C)CCc2ccc(-c3cnc4[nH]nc(-c5ccc(C(N)=O)cc5)c4c3)cc2CC1` (stereo partly drawn) [Example 54, 4-(5-(7-Methyl-7-((R)-2-methylpyrrolidin-1-yl)-6,7,8,9-tetrahydro-5H-benzo[7]annulen-2-yl)-1H-pyrazolo[3,4-b]pyridin-3-yl)benzamide], the concentration for half-maximal inhibition (IC50) against human TYRO3 and against human MER was less than 100 nM throughout.

Consider `Cc1cc(-c2n[nH]c3ncc(-c4ccc5c(c4)CC[C@@H](N4CCCC4)CC5)cc23)cc(C)c1C(=O)N1CCNCC1` [Example 55, 1-(2,6-Dimethyl-4-{5-[(7S)-7-(pyrrolidin-1-yl)-6,7,8,9-tetrahydro-5H-benzo[7]annulen-2-yl]-1H-pyrazolo[3,4-b]pyridin-3-yl}benzoyl)piperazine], for which the IC50 is less than 100 nM against human TYRO3 and 100 to 1000 nM against human MER.

With `Cc1cc(-c2n[nH]c3ncc(-c4ccc5c(c4)CC[C@@H](N4CCCC4)CC5)cc23)cc(Cl)c1C(=O)N1CCNCC1` [Example 56, 1-(2-Chloro-6-methyl-4-{5-[(7S)-7-(pyrrolidin-1-yl)-6,7,8,9-tetrahydro-5H-benzo[7]annulen-2-yl]-1H-pyrazolo[3,4-b]pyridin-3-yl}benzoyl)piperazine], the IC50 at human TYRO3 and against human MER was less than 100 nM throughout.
